Data as given in article PMC6096483, “Structural studies of the unusual metal-ion site of the GH124 endoglucanase from Ruminiclostridium thermocellum” (Acta Crystallographica. Section F, Structural Biology …, 2018).

Target: T1, RtGH124 (GH124 endoglucanase GH124A) (Acetivibrio thermocellus, UniProt A3DCJ4)
T1 construct: gene Cthe_0435; GH124 catalytic domain without dockerin; E. coli BL21(DE3)pLysS; N-terminal His6-3C tag cleaved, leaving GPA before […]; ends ...DRSNPWEIYY; 25304 Da calculated; His264 partially 2-oxohistidine
Test: X-ray crystallography (co-crystallization, […] A)
Type: binding
Settings: active site, two cellotrioses on either side of catalytic Glu203; Mn2+ at distant metal site; Tacsimate pH 5.0; 6.7 mM ligand

T1 sequence (A3DCJ4 entry or part of it): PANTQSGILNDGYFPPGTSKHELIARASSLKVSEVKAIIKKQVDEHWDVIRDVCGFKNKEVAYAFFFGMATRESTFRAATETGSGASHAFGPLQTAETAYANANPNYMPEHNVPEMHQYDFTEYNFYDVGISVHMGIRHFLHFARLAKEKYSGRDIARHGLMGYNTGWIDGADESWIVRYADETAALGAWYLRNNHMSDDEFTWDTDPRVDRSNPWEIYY

Q: `OC[C@H]1O[C@@H](O[C@H]2[C@H](O)[C@@H](O)[C@H](O[C@H]3[C@H](O)[C@@H](O)C(O)O[C@@H]3CO)O[C@@H]2CO)[C@H](O)[C@@H](O)[C@@H]1O` (stereo partly shown) [G3, cellotriose] was tested. Which “X-ray crystallography (co-crystallization, 1.03 A)” value did it give?
A: Its value is “Structures of RtGH124 co-crystallized with cellotriose (G3) showed an active site with two cellotrioses”.
